We go through 14 molecules from patent US8846903B2, “Acyl-urea derivatives and uses thereof” (Yissum Research Development Company of the Hebrew …, priority 2007, dated 2014).

Values joined by “and” are separate entries in the source; they are usually repeats but may differ in a detail not shown here. Identical values can stand only once. A value given as a limit tells only on which side of the number the result lay.

Data set [1] deals with mice. The data set can be described thus: Psychomotor seizure (6 Hz, 32 mA) assay in mice. It counts as in vivo. As to conditions: Mus musculus, ip, intraperitoneal. How it is done: In a third model, the compounds were tested for their ability to block 6 Hz (32 mA) seizures following intraperitoneal administration thereof to male mice. This test is aimed at identifying new drug candidates for the treatment of therapy-resistant partial seizures.
(§1) Briefly, psychomotor seizure (6-Hz) assay measures the resistance of a subject to induced psychomotor seizures. The assay was conducted in mice which were pretreated with the test compound. At varying times after treatment, individual subjects were challenged with sufficient current of 32 mA at 6 Hz for 3 seconds, or 44 mA at 6 Hz for 3 seconds, delivered through corneal electrodes to elicit a psychomotor seizure. Animals which were not affected by the current were considered affected positively by the tested compound, thus compounds which were found active in this test are considered promising novel drug candidates for the treatment of therapy-resistant seizures.

In data set [2] the test system is rats. The experiment in a line: Maximal electroshock seizure test (MES) in rats. The format is in vivo. Particulars: for Fraction of rats which responded to the treatment: MES; for ED50: Rattus norvegicus. The text has this: Briefly, Maximal Electroshock Seizure (MES) assay measures drug capacity to prevent seizure spread and is thus considered to model generalized tonic-clonic seizures. […] The current was delivered to the subjects by means of corneal electrodes to produce tonic hind limb extension. Animals not displaying tonic hind limb extension were considered affected positively by the tested compound.
(In the maximal electroshock model the usual endpoint is tonic extension of the hind limbs.)

Data set [3] concerns mice. The data set can be described thus: Psychomotor seizure (6 Hz, 44 mA) assay in mice. As to conditions: Mus musculus. It counts as in vivo. Here is the method: as §1
The test system of data set [4] is rats. The experiment in a line: Subcutaneous metrazol seizure threshold test (scMet) in rats. The format is in vivo. As to conditions: for ED50: Rattus norvegicus, po; for ED50 / ED50 scMet in Rats: rats, scMet model, oral administration (stated for Compound 1); for Fraction of rats which responded to the treatment: scMet. How it is done:
Subcutaneous Metrazole Seizure Threshold Test (scMet) assay measures the ability of an agent to elevate seizure threshold and is considered to model generalized absence seizures. The assay was performed by subcutaneous injection of 85 mg/kg of the convulsant agent metrazole that induces clonic seizures in at least 97% of all animal models (rats and mice).

In data set [5] the test system is rats. The experiment in a line: Hippocampal kindling screen in rats. The format is in vivo. Particulars: for ED50: Rattus norvegicus, ip. How it is done:
In a fifth model, the hippocampal kindling assay was used to identify new drug candidates effective for the treatment of difficult-to-control seizure types and complex partial seizures, as well as compounds that may be effective as mood stabilizer for treating bipolar disorder, and was conducted according to the protocol described therein.
Briefly, this test was conducted by using a bipolar stimulating electrode which was implanted in the hippocampus of rats, and the rats were kindled according to a described method. One week after implantation of the electrodes, the rats were stimulated with supra-threshold trains of 200 μA and 50 Hz for 10 seconds every 30 minutes for 6 hours on alternate days until the animals were fully kindled. […] The behavioral seizures were scored according to the following criteria (“seizure score”): stage 1—mouth and facial clonus; stage 2—stage 1 plus head nodding; stage 3—stage 2 plus forelimb clonus; stage 4—stage 3 plus rearing; and stage 5—stage 4 plus repeated rearing and falling.
For these studies, each of the compounds was evaluated for its ability to block the kindled motor seizure (seizure scores 4 and 5) and limbic behavioral seizures (seizure score between 1 and 3). Additionally the new drug candidate was evaluated for their ability to reduce after discharge duration. The term “after-discharge-duration” is the duration (measured in seconds) of the stages defined above, which are elicited by the electrical currents delivered to the rats.
At least one week after the fully kindled state was reached, a dose of the test compound was administered intraperitoneally and its effect on behavioral seizure score and after-discharge-duration following 200 μA stimulation was assessed at various time intervals before drug administration and after drug administration. Animals not displaying stage 4 or 5 were considered affected positively from seizure generalization.

Data set [6] relates to rats. Particulars: results disclosed in the art; cited from earlier work.
The subject of data set [7] is mice. As to conditions: from [31]; cited from earlier work.
Data set [8] concerns mice. As to conditions: from [31]; cited from earlier work. The source holds these as a separate data set.
The test system of data set [9] is mice. As to conditions: tested by Spielman and co-workers; cited from earlier work.
In data set [10] the test system is rats. As to conditions: results disclosed in the art; cited from earlier work. This is another data set of the same source.
Data set [11] in a line: in vivo. As to conditions: rat, po.
Method: (§2) The neurotoxicity of the compounds of the present embodiments was tested using rats which were treated by oral administration, and evaluated according to the “gait and stance” test, which assesses minimal neurotoxicity. […] The median neurological toxic dose (TD50) was used for quantization of neurotoxicity.
The subject of data set [12] is mice. The experiment in a line: animal or person. As to conditions: Mus musculus, sc, read-out: Picrotoxin ED50. It counts as in vivo.
The test system of data set [13] is mice. The data set can be described thus: Bicuculline (BIC) clonic seizure assay in mice. The format is in vivo. As to conditions: Mus musculus, sc, BIC 2.7 mg/kg s.c., read-out: Bicucullin ED50.
The test system of data set [14] is Sprague Dawley rats. The data set can be described thus: Acute toxicity (acute motor impairment) after i.p. administration to rats. The format is in vivo. How it is done:
Acute toxicity was determined by recording acute motor impairment after three doses of 30, 100 and 300 mg/kg of the tested compounds. The compounds were administered by the intraperitoneal (i.p.) route to three groups of 4 Sprague Dawley rats. […]

The subject of data set [15] is mice. As to conditions: reported by Spielman et al. [19]; cited from earlier work.
Data set [16] deals with mice. As to conditions: reported by Spielman et al. [19]; cited from earlier work. The source holds these as a separate data set.
The subject of data set [17] is rats. The data set can be described thus: Neurotoxicity, gait and stance test in rats (TD50). Particulars: oral administration, median neurological toxic dose.
Method: as §2
In data set [18] the test system is rats. Particulars: oral administration, literature values; cited from earlier work.

Broadly, the ED50 is the dose that gives a 50% effect, or the effect in half of the subjects. The term melting point denotes the temperature of the solid-liquid transition. Take `CC(C)C(C(=O)NC(N)=O)C(C)C` [Compound 2, 1-(2-isopropyl-3-methylbutanoyl)urea]: the melting point lay in the range of 199 to 200 °C. The molecule also returned an ED50 in data set [1] of 43.3 mg/kg. Further, in data set [2] (dose 15 mg/kg), the “Fraction of rats which responded to the treatment” value (“Fraction of rats which responded” below) is 1/8. For the same molecule, the “Fraction of rats which responded” value in [2] (dose 30 mg/kg) is given as 5/8. The “Fraction of rats which responded” value in data set [2] (dose 60 mg/kg) is recorded as 5/8. Moreover, the “Fraction of rats which responded” value in [2] (dose 120 mg/kg) is listed as 8/8. In [2] (rats, MES model), the ED50 stood at 33 mg/kg and the “ED50 MES in Rats” value was determined as 32.7 mg/kg. The ED50 in data set [3] amounted to 48.6 mg/kg. For the same molecule, in data set [4], the ED50 came out at 16 mg/kg and the “ED50 scMet in Rats” value stood at 15.7 mg/kg. For the same molecule, the “Fraction of rats which responded” value in data set [4] (dose 6 mg/kg) is reported as 1/8. In data set [4] (dose 12 mg/kg), the “Fraction of rats which responded” value is given as 2/8. Besides, the “Fraction of rats which responded” value in [4] (dose 25 mg/kg) is reported as 6/8. For the same molecule, the “Fraction of rats which responded” value in [4] (dose 50 mg/kg) is on record as 8/8. For the same molecule, the ED50 in [5] (rats, intraperitoneal) was > 200 mg/kg.

Regarding `CCCC(CCC)C(=O)O` [Valproic acid, valproic acid], the “ED50 rat-scMet model” value in data set [6] is listed as 646 mg/kg. For the same molecule, the “Bicucullin ED50” value in data set [7] is reported as 589 mg/kg. The “Picrotoxin ED50” value in [8] was 270 mg/kg.

`CCCCC(CC)C(=O)NC(N)=O` (centres unmarked) [Compound 5, 1-(2-ethyl-hexanoyl)-urea] returned a melting point of 158 to 159 °C. Further, the anti-convulsant activity entry in data set [9] is recorded as “lack beneficial activity”.

Take `CCCC(CCC)C(=O)NC(N)=O` [Compound 6, 1-(2-propyl-pentanoyl)-urea]: the ED50 in [1] was 57.8 mg/kg; in [2] (rats, MES model), 53.8 mg/kg; in data set [3], 105 mg/kg; in [4], 76.8 mg/kg; in data set [5] (rats, intraperitoneal), > 180 mg/kg. Moreover, the anti-convulsant activity entry in data set [9] was “lack beneficial activity”.

As for `CC1(C)C(C(=O)NC(N)=O)C1(C)C` [Reference Compound 1, N-(2,2,3,3-tetramethylcyclopropanecarbonyl)urea], the “ED50 rat-MES model” value in data set [10] was 29 mg/kg. The “ED50 rat-scMet model” value in data set [6] is given as 92 mg/kg.

For `CC(C)CC(=O)NC(N)=O` [Compound 7, 3-methylbutanoylurea], the ED50 in data set [2] (rats, MES model) is > 250 mg/kg; in data set [4] it was 83 mg/kg. For the same molecule, the TD50 in data set [11] was < 500 mg/kg. In addition, the anti-convulsant activity result in data set [9] is reported as “lack beneficial activity”.

Turning to `CCC[C@H](C(=O)NC(N)=O)C(C)C` (stereo in doubt) [Compound 1R, R-1-(2-isopropylpentanoyl)urea], the ED50 in data set [1] was 43 mg/kg; in [3] it was 56 mg/kg.

For `CCC(C)C(=O)NC(N)=O` (centres unmarked) [Compound 8, 2-methylbutanoylurea], the melting point lay within 178 to 180 °C. For the same molecule, the anti-convulsant activity entry in data set [9] is “lack beneficial activity”.

With `CC(C)(C)CC(=O)NC(N)=O` [Compound 3, 1-(3,3-dimethyl-butyryl)urea], the melting point lay in the range of 174 to 175 °C. The molecule also showed an ED50 in data set [1] of 80 mg/kg. The same molecule returned an ED50 in data set [2] (rats, MES model) of 63.9 mg/kg. In addition, the ED50 in data set [12] worked out at 167 mg/kg. The same molecule came in with a TD50 in [11] of 143 mg/kg. This molecule had an ED50 in data set [4] of 26 mg/kg. Further, the ED50 in data set [13] came out at 205 mg/kg. Also, in [5] (rats, intraperitoneal), the 50% effect level (ED50) was put at a dose of 35 mg/kg and the “ED50 Hippocampal kindling in Rats” value turned out to be 35.1 mg/kg. Moreover, the “After Discharge Duration After administration” value in data set [5] (individual kindled rats, 15 minutes after intraperitoneal administration, before: 93-103 (rat 1), 28-75 (rat 2)) is “significantly decreased and 4 sec and 14 sec”. In [5] (individual kindled rats, 15 minutes after intraperitoneal administration, score before administration 5), the “Seizure Score After administration” value came out at 0.

Regarding `CC[C@@H](C)[C@@H](CC)C(=O)NC(N)=O` (racemic) [Compound 4, 1-(2-ethyl-3-methyl-pentanoyl)-urea], the ED50 worked out at 21 mg/kg in data set [1]; 24 mg/kg in data set [2] (rats, MES model); 48 mg/kg in data set [3]; 14 mg/kg in [4]. This molecule displayed a TD50 in data set [11] of 97 mg/kg. Also, the anti-convulsant activity entry in data set [9] is on record as “lack beneficial activity”. Also, the “toxicity profile (animals toxic/tested)” value in data set [14] (100 mg/kg i.p., 0.25 hours) was 0/2; in [14] (100 mg/kg i.p., 0.5 hours) it was 1/2; in data set [14] (100 mg/kg i.p., 1 hour), 1/2; in data set [14] (100 mg/kg i.p., 2 hours), 0/2; in data set [14] (100 mg/kg i.p., 4 hours), 0/2; in data set [14] (300 mg/kg i.p., 0.25 hours), 2/2. Besides, the “toxicity profile (animals toxic/tested)” value was 2/2 in data set [14] (300 mg/kg i.p., 0.5 hours); 2/2 in data set [14] (300 mg/kg i.p., 1 hour); 2/2 in data set [14] (300 mg/kg i.p., 2 hours); 2/2 in [14] (300 mg/kg i.p., 4 hours). For the same molecule, in data set [15], the “activity in the scMet assay” value is on record as “only active at toxic doses”. In addition, the “activity in the MES assay” value in [16] was “inactive”.

`CCCC(C(=O)NC(N)=O)C(C)C` (racemic) [Compound 1, 1-(2-isopropylpentanoyl)urea]: the 50% effective dose (ED50) in data set [1] is 42.2 mg/kg; in [2] (rats, MES model), 16 mg/kg; in [3], 71 mg/kg; in [4] it was 45 mg/kg; in data set [5] (rats, intraperitoneal), > 94 mg/kg. In data set [11], this molecule yielded a TD50 of 95 mg/kg. The “ED50 scMet in Rats” value in data set [4] worked out at 45.4 mg/kg. Moreover, in data set [17], the “TD50 in Rats” value was 94.5 mg/kg.

With `CCC[C@@H](C(=O)NC(N)=O)C(C)C` [Compound 1S, S-1-(2-isopropylpentanoyl)urea], the results for the ED50 in data set [1] and in [3] were 46 mg/kg and 75 mg/kg, respectively.

The molecule `CC(C)(C)C(=O)NC(N)=O` [Compound 9, 2,2-dimethylpropanoylurea] came in with a melting point of 148 to 149 °C. In [2] (rats, MES model), this molecule came in with an ED50 of 69.4 mg/kg. Also, in data set [11], the TD50 is 228 mg/kg. For the same molecule, the ED50 in [4] was 29.8 mg/kg.

Take `CC1(C)C(C(=O)NCC(N)=O)C1(C)C` [Reference Compound 2, N-(2,2,3,3-tetramethylcyclopropylcarbonyl)glycinamide]: the “ED50 rat-MES model” value in [10] is listed as 73 mg/kg. For the same molecule, in data set [6], the “ED50 rat-scMet model” value is on record as “higher than 250 mg/kg”. Further, the TD50 result in [18] is reported as “above 500 mg/kg”.
